The results in this text go back to ChEMBL document CHEMBL1156839, “From anti-fouling to biofilm inhibition: new cytotoxic secondary metabolites from two Indonesian Agelas sponges” (Bioorg Med Chem, 2010).

Converted amounts (≈) assume the structure as drawn. Structures can show the parent of a compound that is named as a salt. The source made the active and inactive calls. No cut-off for these calls is given here.

As usually defined, the MIC is the lowest concentration found to suppress growth. What is called IC50 is the point on the concentration scale where inhibition reaches its midpoint.

The test system of data set [1] is Staphylococcus epidermidis. Briefly: Antibacterial activity against Staphylococcus epidermidis. Type of data set: functional.
Data set [2] relates to Staphylococcus epidermidis. Briefly: Growth inhibition of Staphylococcus epidermidis. Type of data set: functional, organism-based.
Data set [3] has as its system L5178Y. Briefly: Cytotoxicity against mouse L5178Y cells after 72 hrs by MTT assay. Type of data set: functional, cell-based. Background: Tetrazolium dyes change colour on reduction, which living cells bring about.
In data set [4] the test system is Staphylococcus epidermidis. Briefly: Antibacterial activity against Staphylococcus epidermidis assessed as inhibition of biofilm formation after 18 hrs by adherent assay. Type of data set: functional, organism-based.
Data set [5] concerns L5178Y. Briefly: Growth inhibition of mouse L5178Y cells at […] after 72 hrs by MTT assay relative to untreated control. In kind it is functional. Also noted: dose or concentration left out as unconfirmed. The conditions noted are these: values are per cent of control.
Data set [6] concerns Amphibalanus improvisus. Briefly: Antifouling activity against Balanus improvisus […] larvae assessed as inhibition of cyprid larval settlement at 0.1 uM to 100 uM. Type of data set: functional, organism-based.
Data set [7] relates to Amphibalanus improvisus. Briefly: Toxicity against Balanus improvisus […] larvae assessed as cyprid larval death at 0.1 uM to 100 uM. In kind it is ADME, organism-based. The conditions noted are these: in vivo.
Setting [8] is: Staphylococcus epidermidis, read-out: MIC.

For the compound `O=C1NCC(O)n2cc(Br)cc21` (configuration not stated), in data set [1] (setting [8]), the MIC was over 87 µM. Moreover, in data set [2], the “growth inhibition (GI)” value is “inactive”. The same compound showed an IC50 in data set [3] of over 43.2 µM. In addition, the inhibition result in data set [4] was “inactive”. For the same compound, in data set [5], the growth, % of control was 78.5%.
Consider `C=C1CC[C@@H]2C(C)(C)CCC[C@@]2(C)[C@@H]1CC/C(C)=C/C[n+]1cn(C)c2nc[nH]/c(=N\O)c21.[Cl-]`, for which, in data set [1] (setting [8]), the MIC is over 45 µM. For the same compound, the “growth inhibition (GI)” value in data set [2] was “inactive”. Further, the inhibition entry in data set [6] was “Dose-dependent effect”. In data set [3], this compound came in with an IC50 of 12.5 µM. Further, the inhibition result in data set [4] is “Active”. The Activity result in data set [7] is listed as “Toxic”. In data set [5], the growth, % of control worked out at 4.2%.
On to `Cn1c(C(=O)O)cc(Br)c1Br`, for which the minimum inhibitory concentration (MIC) in data set [1] (setting [8]) was over 71 µM. Also, in data set [2], the “growth inhibition (GI)” value is “inactive”. Further, in data set [4], the inhibition entry was “inactive”. Besides, the growth, % of control in data set [5] turned out to be 87.8%.
For the compound `COC(=O)c1cc(Br)c(Br)n1C`, the MIC in data set [1] (setting [8]) is over 67 µM. Further, the “growth inhibition (GI)” value in data set [2] was “inactive”. In data set [4], the inhibition entry is “inactive”. Moreover, the growth, % of control in data set [5] was determined as 83.4%.
For `Cn1c(C(=O)NCCCC(=O)O)cc(Br)c1Br`, the minimal inhibitory concentration (MIC) in data set [1] (setting [8]) is over 54 µM. The “growth inhibition (GI)” value in data set [2] was “inactive”. Also, the inhibition entry in data set [4] is “inactive”. In addition, in data set [5], the growth, % of control stood at 108%.
In the case of `NC1=N[C@@]23CCCN2C(=O)c2cc(Br)c(Br)n2[C@H]3N1`, the “growth inhibition (GI)” value in data set [2] is “inactive”. Further, in data set [4], the inhibition entry was “inactive”.
As for `CN(C)CCc1ccc(OCCCNC(=O)c2cc(Br)c[nH]2)c(Br)c1` [AGELANESIN A], the MIC in data set [1] (setting [8]) is over 42 µM. For the same compound, the “growth inhibition (GI)” value in data set [2] was “inactive”. Also, in data set [3], the midpoint of inhibition, the IC50, lay at 9.55 µM. Besides, the inhibition result in data set [4] was “inactive”. In addition, the growth, % of control in data set [5] was -0.5%.
Take `CN(C)CCc1ccc(OCCCNC(=O)c2cc(Br)c[nH]2)c(I)c1` [AGELANESIN B]: the MIC in data set [1] (setting [8]) is over 38 µM. The “growth inhibition (GI)” value in data set [2] was “inactive”. Further, the midpoint of inhibition in data set [3], the IC50, lay at 9.25 µM. Also, the inhibition result in data set [4] was “inactive”. In addition, the growth, % of control in data set [5] was 2.3%.
As to `CN(C)CCc1ccc(OCCCNC(=O)c2cc(Br)c(Br)[nH]2)c(Br)c1` [AGELANESIN C], the minimal inhibitory concentration (MIC) in data set [1] (setting [8]) was over 36 µM. Also, the “growth inhibition (GI)” value in data set [2] was “inactive”. The same compound yielded an IC50 in data set [3] of 16.8 µM. Besides, the inhibition entry in data set [4] was “inactive”. For the same compound, in data set [5], the growth, % of control stood at 0.8%.
On to `CN(C)CCc1ccc(OCCCNC(=O)c2cc(Br)c(Br)[nH]2)c(I)c1` [AGELANESIN D], for which the minimum inhibitory concentration (MIC) in data set [1] (setting [8]) was over 33 µM. For the same compound, in data set [2], the “growth inhibition (GI)” value is “inactive”. The same compound gave an IC50 in data set [3] of 13.1 µM. Further, the inhibition result in data set [4] is “inactive”. Further, in data set [5], the growth, % of control was -2.3%.
Turning to `Cn1c(C(=O)N2CCC(O)=C3N=C(N)N=C32)cc(Br)c1Br` [AGELANIN A], the MIC in data set [1] (setting [8]) was over 48 µM. Also, in data set [2], the “growth inhibition (GI)” value is “inactive”. Further, in data set [4], the inhibition entry is “inactive”. Moreover, the growth, % of control in data set [5] was determined as 98.9%.
Take `CC(=O)C(O)(CCCNC(=O)c1cc(Br)c(Br)n1C)CC(=O)O` (configuration not stated) [AGELANIN B]: the MIC in data set [1] (setting [8]) was over 44 µM. Besides, the “growth inhibition (GI)” value in data set [2] was “inactive”. Besides, in data set [4], the inhibition entry is “inactive”. Besides, the growth, % of control in data set [5] is 92.8%.
In the case of `CC1=CCC[C@@H](C)[C@]1(C)CC/C(C)=C/CC/C(C)=C/CS(=O)(=O)CCNC(=N)N` [AGELASIDINE C], the minimal inhibitory concentration (MIC) in data set [1] (setting [8]) was 5.9 µM (≈ 2.5 µg/mL). In data set [2], the “growth inhibition (GI)” value is “inactive”. For the same compound, the inhibition result in data set [4] is “inactive”. The growth, % of control in data set [5] was determined as 37.4%.
`C=C1CC[C@@H]2C(C)(C)CCC[C@@]2(C)[C@@H]1CC/C(C)=C/Cn1c[n+](C)c2ncnc(N)c21.[Cl-]` [AGELASINE D]: the MIC in data set [1] (setting [8]) is under 0.0877 µM. Further, in data set [2], the “growth inhibition (GI)” value was “inactive”. The inhibition result in data set [6] is “Dose-dependent effect”. Also, the midpoint of inhibition in data set [3], the IC50, lay at 4.03 µM. In addition, the inhibition result in data set [4] was “inactive”. Further, the Activity entry in data set [7] is on record as “Toxic”. Moreover, in data set [5], the growth, % of control was found to be 1.9%.
As for `NC1=N[C@@]23CCCN2C(=O)c2cc(Br)c(Br)n2[C@]3(O)N1` [DIBROMOHYDROXYPHAKELLIN HYDROCHLORIDE], in data set [1] (setting [8]), the MIC is over 45 µM. Further, the “growth inhibition (GI)” value in data set [2] was “inactive”. The inhibition result in data set [4] is “inactive”. Further, in data set [5], the growth, % of control came out at 113%.
`NC1=N[C@@]23CCCN2C(=O)c2cc(Br)c(Br)n2[C@H]3N1` [DIBROMPHAKELLIN HYDROCHLORIDE]: the minimal inhibitory concentration (MIC) in data set [1] (setting [8]) is over 47 µM.
Turning to `NC1=N[C@@]23CCCN2C(=O)c2cc(Br)c(Br)n2[C@H]3N1` [DIBROMPHAKELLIN], the minimal inhibitory concentration (MIC) in data set [1] was over 51 µM.
As to `Cn1c(C(=O)NCCCC2(NCCS(=O)(=O)O)NC(=N)NC2=O)cc(Br)c1Br` (configuration not stated) [MAURITAMIDE B], the minimum inhibitory concentration (MIC) in data set [1] (setting [8]) was over 37 µM. Further, the “growth inhibition (GI)” value in data set [2] is “inactive”. Further, in data set [4], the inhibition entry is “inactive”. In addition, the growth, % of control in data set [5] is 92.5%.
On to `CCN1C(=N)NC(=O)C1(CCCNC(=O)c1cc(Br)c(Br)n1C)NCCS(=O)(=O)O` (configuration not stated) [MAURITAMIDE C], for which, in data set [1] (setting [8]), the MIC is over 35 µM. The “growth inhibition (GI)” value in data set [2] is “inactive”. Besides, in data set [4], the inhibition result is “inactive”. In data set [5], the growth, % of control turned out to be 98.6%.
In the case of `Cn1c(C(=O)NCCS(=O)(=O)O)cc(Br)c1Br` [MAURITAMIDE D], the minimal inhibitory concentration (MIC) in data set [1] (setting [8]) is over 52 µM. Also, in data set [2], the “growth inhibition (GI)” value is “inactive”. In addition, the inhibition result in data set [4] is “inactive”. For the same compound, the growth, % of control in data set [5] was 118%.
Consider `CN1C(=O)NC(CCCNC(=O)c2cc(Br)c(Br)n2C)C1=O` (configuration not stated) [MIDPACAMIDE], for which, in data set [1] (setting [8]), the MIC is over 46 µM. For the same compound, the “growth inhibition (GI)” value in data set [2] was “inactive”. For the same compound, the inhibition result in data set [4] was “inactive”. Besides, the growth, % of control in data set [5] came to 46.7%.
